Reference: US20040087539A1, “Method of treating conditions related to platelet activity” (priority 2003, published 2004)

What was measured:
[1] = tested on: CHO cells expressing human platelet receptors; assay: Cell adhesion to immobilized vWF under flow; assay type: cell-based, Chinese Hamster; settings: FIG. 2C; sildenafil 5 μM, RGDS 4 mM; 8-bromo-cGMP not shown
Experimental: CHO cells expressing human platelet receptors were resuspended in modified Tyrode's buffer, pH 7.4, containing 1 mg/mi of bovine serum albumin (BSA) (see Ref. 46), and final cell count was 5×10^5/ml. […] Purified human vWF (10 μg/ml in 0.1 M NaHCO3, pH 8.3) was added to glass microcapillary tubes (inner diameter of 1.33 mm and a length of 7.2 cm), and incubated at 4° C. for 20 h. The vWF-coated microcapillary tubes then were incubated with 5% BSA. After washing, the cell suspension was aspirated through the tube by a syringe pump (Harvard Apparatus Inc.) at desired shear rates for 1.2 minutes and washed with modified Tyrode's buffer for additional 10 minutes at the same shear rates to remove transiently adherent cells. The experiments were continuously recorded on videotape using a video cassette recorder (model 9500, Sony). The number of stably adherent cell on immobilized vWF was counted on images obtained at 20 randomly selected positions in the vWF-coated tubes.
In FIGS. 2A and B, vWF-coated capillary tubes were perfused with equivalent numbers (5×10^5/ml) of CHO cells expressing recombinant GPLb-JX alone (1b9), integrin αIIbβ3 alone (2b3a), both GPIb-IX and integrin αIIbβ3 (123) or expressing GPJb-JX, integrin α^IIbβ3 and PKG Ia (123PKG) at a shear rates of 800 s^−1 (A) or 1500 s^−1 (B) for 1.2 minutes, and then perfused with the modified Tyrodes buffer for 10 minutes at the same shear rates to wash out transient adherent cells. The expenments were recorded in real time. Cells stably adherent to vWF-coated capillary tubes at 20 randomly selected locations were counted.
In FIG. 2C, vector-transfected 123 cells (123) or 123PKG cells also was perfused into vWF-coated glass capillary tubes as described in FIG. 2A in the absence or presence (+RGDS) of an integrin inhibitor RGDS peptide (4 mM) and in the absence (Control) or presence of cGMP-enhancing drug, sildenafil (5 μM). […] The experiments were repeated at least three times.

[2] = tested on: platelets; assay: Low-dose α-thrombin-induced aggregation of washed platelets; assay type: cell-based, human
Experimental: Fresh blood from healthy volunteers was anticoagulated with 1/7 volume of ACD (2.5% trisodium citrate, 2% dextrose and 1.5% citric acid). Platelets were washed with CGS buffer (sodium chloride 0.12 M, trisodium citrate 0.0129 M and d-glucose 0.03 M, pH 6.5), resuspended in modified Tyrode's solution and allowed to incubate at 22° C. for 1 hours as previously described. In experiments using platelet-rich plasma (PRP), 1/10 volume of 3.8% trisodium citrate was used as anticoagulant. Platelet aggregation was measured using a turbidometric platelet aggregometer (Chrono-Log) at 37° C. vWF-dependent platelet aggregation was induced by addition of ristocetin or botrocetin to PRP. To differentiate CPIb-IX-mediated platelet agglutination from the second wave of integrin-dependent platelet aggregation, final concentrations of ristocetin were adjusted in each experiment to achieve a two-wave curve of aggregation. Washed platelets were used in platelet aggregation induced by a-thrombin (Enzyme Research Laboratories). To examine the effects of PKG, 100 μM of membrane permeable cGMP analogs, 8-bromo-cGMP or 8-dibutyl-cGMP (Calbiochem), or 1 μM sildenafil citrate (Pfizer) and added simultaneously with subthreshold concentrations of agonists. PKG inhibitors KT5823 (2 pM) and Rp-8PCPT-cGMP (0.2 mM) were preincubated with platelets at 37° C. for 5 minutes before addition of agonists.
In FIG. 5A, washed platelets were preincubated with 40 pg/mi anti-GPIba monoclonal antibody SZ2, integrin inhibitor RGDS, or inhibitors of PKG, KT5823 (2 μM) or Rp-8pCPT-cGMP (0.2 mM) (Calbiochem), for 5 min. Platelets also were preincubated with DMSO (vehicle for KT5823), KT5720 or buffer (Control) as controls. α-Thrombin (0.05 units/mi) then was added to induce platelet aggregation. Nonspecific JgG and RGES peptides also were examined as additional controls, but had no effect (not shown). In FIG. 5B, a subthreshold dose of thrombin was added to platelets immediately followed by addition of PKG activator 8-bromo-cGMP or buffer (Control). Shown in the figure are the representative results of at least three experiments.
In FIG. 6A, increasing concentrations of sildenafil or control 0.15 M NaCl solution were added to platelet-rich plasma followed by a subthreshold concentration of ristocetin. Platelet aggregation was recorded using a platelet aggregometer. In FIG. 6B, sildenafil or control buffer was added to washed platelets followed by addition of subthreshold doses of thrombin to induce platelet aggregation. It was noted that platelet aggregation occurs in the presence of sildenafil. The figure includes the representative results of at least three experiments.
In FIG. 7A, PRP was preincubated with 0.1 mM 8-bromo-cGMP for increasing lengths of time at 37° C. as indicated. The vWF modulator, ristocetin (1.25 mg/ml), then was added to induce platelet aggregation in a turbidometric platelet aggregometer. In FIG. 7B, PRP was preincubated with a high concentration of 8-bromo-cGMP (1 mM) for 5 minutes. Ristocetin then was added to induce platelet aggregation. In FIGS. 7C and 7D, washed platelets in modified Tyrode's solution were preincubated with 1 mM 8-bromo-cGMP (C), or various concentrations of 8-pCPT-cGMP (D) at 37° C. for 5 minutes. Thrombin (0.05 u/ml) then was added to induce platelet aggregation.

Nc1nc2c(nc(Br)n2[C@@H]2O[C@@H]3COP(=O)(O)O[C@H]3[C@H]2O)c(=O)[nH]1 [8-bromo-cGMP]
stable adhesion of PKG-expressing 123 cells (123PKG) to vWF under flow [1]: enhanced
GPIb-IX-dependent platelet activation, agent added simultaneously with thrombin ([2]; 8-bromo-cGMP 100 μM, FIG. 5): promoted
platelet aggregation together with a subthreshold concentration of thrombin ([2]; washed platelets, thrombin 0.02 units/ml, FIGS. 5B, 6B): induced platelet aggregation
